Some results are limits rather than exact numbers.

Data on 13 molecules can be found in patent US12091426B2, “Bifunctional degraders of hematopoietic progenitor kinase and therapeutic uses thereof” (Nurix Therapeutics, Inc., priority 2021, dated 2024).

For this assay, the target named is T1, HPK1 (Homo sapiens, UniProt Q92918).
T1 construct: A HiBiT tag was introduced by CRISPR on the N terminus of HPK1 in Jurkat cells; host or cells: Jurkat cells (ATCC TIB-152), monoclonal line with CRISPR knock-in of HiBiT at the endogenous HPK1 locus
T1 sequence (Q92918 whole entry): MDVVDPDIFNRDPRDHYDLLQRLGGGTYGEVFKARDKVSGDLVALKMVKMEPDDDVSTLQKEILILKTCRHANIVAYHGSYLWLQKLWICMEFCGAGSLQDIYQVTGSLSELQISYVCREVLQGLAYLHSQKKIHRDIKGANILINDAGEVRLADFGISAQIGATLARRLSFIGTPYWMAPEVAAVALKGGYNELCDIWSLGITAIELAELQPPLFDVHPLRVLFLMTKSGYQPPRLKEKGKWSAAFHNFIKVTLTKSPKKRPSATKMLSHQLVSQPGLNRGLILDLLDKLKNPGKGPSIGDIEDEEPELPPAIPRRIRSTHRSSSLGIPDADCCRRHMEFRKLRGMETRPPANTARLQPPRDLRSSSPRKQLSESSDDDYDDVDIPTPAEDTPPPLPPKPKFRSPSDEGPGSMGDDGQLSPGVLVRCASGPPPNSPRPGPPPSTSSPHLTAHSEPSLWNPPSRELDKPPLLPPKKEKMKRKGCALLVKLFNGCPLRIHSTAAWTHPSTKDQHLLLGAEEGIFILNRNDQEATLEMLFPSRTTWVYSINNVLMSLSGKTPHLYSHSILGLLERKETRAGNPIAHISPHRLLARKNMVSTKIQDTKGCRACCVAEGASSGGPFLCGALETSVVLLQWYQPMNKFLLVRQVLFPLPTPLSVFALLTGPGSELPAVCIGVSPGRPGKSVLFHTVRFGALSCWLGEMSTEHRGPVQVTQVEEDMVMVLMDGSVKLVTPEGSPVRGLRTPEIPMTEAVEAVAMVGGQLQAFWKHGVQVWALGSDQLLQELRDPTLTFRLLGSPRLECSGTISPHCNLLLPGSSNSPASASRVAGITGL
Description: HPK1 Cellular HiBit Degradation Assay. Format: cell-based. The following applies: HiBiT HPK1 Jurkat cells, 24 hrs; for DC50: concentration at which 50% of HPK1 was remaining, read-out: DC50 Category; for Dmax: Jurkat, maximum degradation vs DMSO vehicle control, read-out: Dmax Category. The procedure, abridged:
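Jurkat cells with CRISPR N-terminal HiBiT-tagged endogenous HPK1 treated 24 h at 37 °C with 11-point, 3.16-fold dilutions (10 uM to 0.1 nM final). HiBiT lytic luminescence gives % HPK1 remaining versus DMSO, with parental cells as background. Four-parameter fit yields DC50; Dmax = 100 minus lowest % remaining.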

As for `CC(C)n1cnc2cc(-c3ccc4c(c3)N([C@H]3C[C@@H](N5CCCCC5)C3)C(=O)C43CCN(C(=O)[C@]4(C)CCN(C(=O)C5CCN(c6ccc(C7CCC(=O)NC7=O)cn6)CC5)C4)CC3)nc(NC3CC3)c21` (mixture of isomers) [Example 186, (3RS)-3-(6-{4-[(3R)-3-({6-[4-(cyclopropylamino)-3-(propan-2-yl)-3H-imidazo[4,5-c]pyridin-6-yl]-2-oxo-1-[(1S,3S)-3-(piperidin-1-yl)cyclobutyl]-1,2-dihydrospiro[indole-3,4′-piperidin]-1′-yl}carbonyl)-3-methylpyrrolidine-1-carbonyl]piperidin-1-yl}pyridin-3-yl)piperidine-2,6-dione], the DC50 lay within 0.1 to 0.5 µM and the maximal degradation (Dmax) was 70 to 85%.

In the case of `CC(C(=O)N1CCC2(CC1)C(=O)N([C@H]1C[C@@H](N3CCCCC3)C1)c1cc(-c3cc4ncn(C(C)C)c4c(NC4CC4)n3)ccc12)C1CCN(C(=O)C2CCN(c3ccc(C4CCC(=O)NC4=O)cn3)CC2)CC1` (mixture of isomers) [Example 187, (3RS)-3-(6-{4-[4-(1-{6-[4-(cyclopropylamino)-3-(propan-2-yl)-3H-imidazo[4,5-c]pyridin-6-yl]-2-oxo-1-[(1S,3S)-3-(piperidin-1-yl)cyclobutyl]-1,2-dihydrospiro[indole-3,4′-piperidin]-1′-yl}-1-oxopropan-2-yl)piperidine-1-carbonyl]piperidin-1-yl}pyridin-3-yl)piperidine-2,6-dione], the DC50 is less than 0.1 µM and the greatest degradation seen (Dmax) was 70 to 85%.

For `CC(C)n1cnc2cc(-c3ccc4c(c3)N([C@H]3C[C@@H](N5CCCCC5)C3)C(=O)C43CCN(C(=O)C(C)(C)N4CCN(C(=O)C5CCN(c6ccc(C7CCC(=O)NC7=O)cn6)CC5)CC4)CC3)nc(NC3CC3)c21` (mixture of isomers) [Example 188, (3RS)-3-(6-{4-[4-(1-{6-[4-(cyclopropylamino)-3-isopropylimidazo[4,5-c]pyridin-6-yl]-2-oxo-1-[(1S,3S)-3-(piperidin-1-yl)cyclobutyl]spiro[indole-3,4′-piperidin]-1′-yl}-2-methyl-1-oxopropan-2-yl)piperazine-1-carbonyl]piperidin-1-yl}pyridin-3-yl)piperidine-2,6-dione], the half-maximal degradation concentration (DC50) was less than 0.1 µM and the Dmax fell in the range of 70 to 85%.

In the case of `Cc1cc(N2CCC(C(=O)N3CCC(C)(C(=O)N4CCC5(CC4)C(=O)N([C@H]4C[C@@H](N6CCCCC6)C4)c4cc(-c6cc7ncn(C(C)C)c7c(NC7CC7)n6)ccc45)CC3)CC2)ncc1C1CCC(=O)NC1=O` (mixture of isomers) [Example 189, (3RS)-3-(6-{4-[4-({6-[4-(cyclopropylamino)-3-isopropylimidazo[4,5-c]pyridin-6-yl]-2-oxo-1-[(1S,3S)-3-(piperidin-1-yl)cyclobutyl]spiro[indole-3,4′-piperidin]-1′-yl}carbonyl)-4-methylpiperidine-1-carbonyl]piperidin-1-yl}-4-Methylpyridin-3-yl)piperidine-2,6-dione], the half-maximal degradation concentration (DC50) is less than 0.1 µM and the Dmax was 70 to 85%.

For the molecule `CC(C)n1cnc2cc(-c3ccc4c(c3)N([C@H]3C[C@@H](N5CCCCC5)C3)C(=O)C43CCN(C(=O)C4(C)CCN(C(=O)[C@H]5CC[C@H](Cn6cc7cc(C8CCC(=O)NC8=O)ccc7n6)CC5)CC4)CC3)nc(Nc3ccccc3F)c21` (mixture of isomers) [Example 190, (3RS)-3-(2-{[(1R,4R)-4-{4-[(6-{4-[(2-fluorophenyl)amino]-3-(propan-2-yl)-3H-imidazo[4,5-c]pyridin-6-yl}-2-oxo-1-[(1S,3S)-3-(piperidin-1-yl)cyclobutyl]-1,2-dihydrospiro[indole-3,4′-piperidin]-1′-yl)carbonyl]-4-methylpiperidine-1-carbonyl}cyclohexyl]methyl}-2H-indazol-5-yl)piperidine-2,6-dione], the half-maximal degradation concentration (DC50) is less than 0.1 µM and the Dmax was in the range of 50 to 70%.

With `CC(C)n1cnc2cc(-c3ccc4c(c3)N([C@H]3C[C@@H](N5CCCCC5)C3)C(=O)C43CCN(C(=O)C4(C)CCN(C(=O)[C@H]5CC[C@H](Nc6ccc(C7CCC(=O)NC7=O)cc6)CC5)CC4)CC3)nc(NC3CC3)c21` (mixture of isomers) [Example 191, (3RS)-3-(4-{[(1R,4R)-4-[4-({6-[4-(cyclopropylamino)-3-(propan-2-yl)-3H-imidazo[4,5-c]pyridin-6-yl]-2-oxo-1-[(1S,3S)-3-(piperidin-1-yl)cyclobutyl]-1,2-dihydrospiro[indole-3,4′-piperidin]-1′-yl}carbonyl)-4-methylpiperidine-1-carbonyl]cyclohexyl]amino}phenyl)piperidine-2,6-dione], the 50% degradation concentration (DC50) was less than 0.1 µM and the Dmax is 70 to 85%.

`CC(C)n1cnc2cc(-c3ccc4c(c3)N([C@H]3C[C@@H](N5C6CCC5COC6)C3)C(=O)C43CCN(C(=O)C4(C)CCN(C(=O)[C@H]5CC[C@H](Oc6ccc(C7CCC(=O)NC7=O)cc6)CC5)CC4)CC3)nc(NC3CC3)c21` (mixture of isomers) [Example 193, (3RS)-3-(4-{[(1R,4R)-4-[4-({6-[4-(cyclopropylamino)-3-(propan-2-yl)-3H-imidazo[4,5-c]pyridin-6-yl]-2-oxo-1-[(1S,3S)-3-{3-oxa-8-Azabicyclo[3.2.1]octan-8-yl}cyclobutyl]-1,2-dihydrospiro[indole-3,4′-piperidin]-1′-yl}carbonyl)-4-methylpiperidine-1-carbonyl]cyclohexyl]oxy}phenyl)piperidine-2,6-dione]: the DC50 fell in the range of 0.1 to 0.5 µM and the maximal degradation (Dmax) lay within 50 to 70%.

Regarding `CC(C)n1cnc2cc(-c3ccc4c(c3)N([C@H]3C[C@@H](N5CCCCC5)C3)C(=O)C43CCN(C(=O)C4(C)CCN(C(=O)[C@H]5CC[C@H](Oc6ncc(C7CCC(=O)NC7=O)cn6)CC5)CC4)CC3)nc(NC3CC3)c21` (mixture of isomers) [Example 194, (3RS)-3-(2-{[(1R,4R)-4-[4-({6-[4-(cyclopropylamino)-3-(propan-2-yl)-3H-imidazo[4,5-c]pyridin-6-yl]-2-oxo-1-[(1S,3S)-3-(piperidin-1-yl)cyclobutyl]-1,2-dihydrospiro[indole-3,4′-piperidin]-1′-yl}carbonyl)-4-methylpiperidine-1-carbonyl]cyclohexyl]oxy}pyrimidin-5-yl)piperidine-2,6-dione], the DC50 fell in the range of 0.1 to 0.5 µM and the Dmax lay within 70 to 85%.

For `CC(C)n1cnc2cc(-c3ccc4c(c3)N([C@H]3C[C@@H](N5C6COCC5C6)C3)C(=O)C43CCN(C(=O)C4(C)CCN(C(=O)C5CCN(c6ccc(C7CCC(=O)NC7=O)cc6)CC5)CC4)CC3)nc(NC3CC3)c21` (mixture of isomers) [Example 195, (3RS)-3-(4-{4-[4-({6-[4-(cyclopropylamino)-3-(propan-2-yl)-3H-imidazo[4,5-c]pyridin-6-yl]-2-oxo-1-[(1S,3S)-3-{3-oxa-6-Azabicyclo[3.1.1]heptan-6-yl}cyclobutyl]-1,2-dihydrospiro[indole-3,4′-piperidin]-1′-yl}carbonyl)-4-methylpiperidine-1-carbonyl]piperidin-1-yl}phenyl)piperidine-2,6-dione], the half-maximal degradation concentration (DC50) lay in the range of 0.5 to 1 µM and the Dmax was in the range of 50 to 70%.

Regarding `CC(C)n1cnc2cc(-c3ccc4c(c3)N([C@H]3C[C@@H](N5CCCCC5)C3)C(=O)C43CCN(C(=O)C4(C)CCN(C(=O)C5CCN(c6ccc(C7CCC(=O)NC7=O)cc6)CC5)CC4)CC3)nc(NC3CCOCC3)c21` (mixture of isomers) [Example 196, (3RS)-3-[4-(4-{4-methyl-4-[(6-{4-[(oxan-4-yl)amino]-3-(propan-2-yl)-3H-imidazo[4,5-c]pyridin-6-yl}-2-oxo-1-[(1S,3S)-3-(piperidin-1-yl)cyclobutyl]-1,2-dihydrospiro[indole-3,4′-piperidin]-1′-yl)carbonyl]piperidine-1-carbonyl}piperidin-1-yl)phenyl]piperidine-2,6-dione], the half-maximal degradation concentration (DC50) was less than 0.1 µM and the Dmax fell in the range of 70 to 85%.

Take `CC(C)n1cnc2cc(-c3ccc4c(c3)N([C@H]3C[C@@H](N5CC6CCC(C5)O6)C3)C(=O)C43CCN(C(=O)C4(C)CCN(C(=O)C5CCN(c6ccc(C7CCC(=O)NC7=O)cc6)CC5)CC4)CC3)nc(NC3CC3)c21` (mixture of isomers) [Example 197]: the DC50 was in the range of 0.1 to 0.5 µM and the greatest degradation seen (Dmax) fell in the range of 50 to 70%.

In the case of `CC(C)n1cnc2cc(-c3ccc4c(c3)N([C@H]3C[C@@H](N5CCC[C@H](F)C5)C3)C(=O)C43CCN(C(=O)C4(C)CCN(C(=O)C5CCN(c6ccc(C7CCC(=O)NC7=O)cc6)CC5)CC4)CC3)nc(NC3CC3)c21` (mixture of isomers) [Example 198, (3RS)-3-(4-{4-[4-({6-[4-(cyclopropylamino)-3-(propan-2-yl)-3H-imidazo[4,5-c]pyridin-6-yl]-2-oxo-1-[(1S,3S)-3-[(3S)-3-fluoropiperidin-1-yl]cyclobutyl]-1,2-dihydrospiro[indole-3,4′-piperidin]-1′-yl}carbonyl)-4-methylpiperidine-1-carbonyl]piperidin-1-yl}phenyl)piperidine-2,6-dione], the DC50 was in the range of 0.1 to 0.5 µM and the greatest degradation seen (Dmax) is 70 to 85%.

Take `CC(C)n1cnc2cc(-c3ccc4c(c3)N([C@H]3C[C@@H](N5CCC[C@@H](F)C5)C3)C(=O)C43CCN(C(=O)C4(C)CCN(C(=O)C5CCN(c6ccc(C7CCC(=O)NC7=O)cc6)CC5)CC4)CC3)nc(NC3CC3)c21` (mixture of isomers) [Example 199, (3RS)-3-(4-{4-[4-({6-[4-(cyclopropylamino)-3-(propan-2-yl)-3H-imidazo[4,5-c]pyridin-6-yl]-2-oxo-1-[(1S,3S)-3-[(3R)-3-fluoropiperidin-1-yl]cyclobutyl]-1,2-dihydrospiro[indole-3,4′-piperidin]-1′-yl}carbonyl)-4-methylpiperidine-1-carbonyl]piperidin-1-yl}phenyl)piperidine-2,6-dione]: the DC50 lay within 0.1 to 0.5 µM and the Dmax is 50 to 70%.
